Test results published in PMC6335420, “The cell cycle regulator GpsB functions as cytosolic adaptor for multiple cell wall enzymes” (Nature Communications, 2019).
“Also recorded” adds a separate entry of the source. Residues, ends and D or L forms follow the SMILES beside them. *: point of attachment. Fluorescein(5-Mal) = O=C1OC2(c3ccc(O)cc3Oc3cc(O)ccc32)c2ccc(N3C(=O)CC(*)C3=O)cc21; X1 = CN(C)c1ccc2c(-c3ccc(N4C(=O)CC(*)C4=O)cc3C(=O)[O-])c3ccc(=[N+](C)C)cc-3oc2c1

Tests used:
BsGpsB1-68Lys32Glu = target: T1, BsGpsB1-68Lys32Glu (Bacillus subtilis, UniProt P0CI74, K32E); experiment: Fluorescence polarisation binding to BsGpsB1-68Lys32Glu; details: FP
T1 construct: His6 (N, cleaved yes); made in house; host or cells: E. coli BL21(DE3)
Source text: (§1) 75 the BsGpsB5-64:BsPBP11-17 complex.

LmGpsB1-73 = target: T2, LmGpsB1-73 (Listeria monocytogenes serovar 1/2a, UniProt Q8Y614); experiment: Fluorescence polarisation binding to LmGpsB1-73; details: FP
T2 construct: made in house; host or cells: E. coli BL21(DE3)
Source text: as §1

L. monocytogenes [1] = experiment: L. monocytogenes fosfomycin susceptibility (filter disc); format: cell-based, Listeria monocytogenes EGD-e; details: halo around filter disc, BHI agar, 37 °C; pbpA1 R8A,R12A and Q10P mutants; triplicate
Description: Fosfomycin susceptibility was recorded using filter discs (Ø 6 mm) soaked with 10 µL of a 10 mg^−1mL^−1 fosfomycin solution. L. monocytogenes colonies, grown on BHI agar plates, were resuspended in BHI broth and used to swab-inoculate BHI agar plates. Filter discs soaked with fosfomycin were placed on top of the agar surface and the plates were incubated at 37 °C overnight. Diameter of growth inhibition zones was measured and corrected for the filter disc diameter. All experiments were performed three times and average values and standard deviations were calculated. Significance was determined using the t-test and differences were considered to be significant when P < 0.01.

L. monocytogenes [2] = details: 37 °C, vs wild-type L. monocytogenes; cited from earlier work
BsGpsB1-68Glu17Ala = target: T3, BsGpsB1-68Glu17Ala (Bacillus subtilis, UniProt P0CI74, E17A); experiment: Fluorescence polarisation binding to BsGpsB1-68Glu17Ala; details: FP, BsGpsB1-68Glu17Ala relative to wild-type BsGpsB1-68
T3 construct: Glu17Ala, Asp31Ala and Asp35Ala mutations were introduced to the BsGpsB1-68 expression construct plasmid; His6 (N, cleaved yes); made in house; host or cells: E. coli BL21(DE3)
Source text: as §1

BsGpsB1-68Asp35Ala = target: T4, BsGpsB1-68Asp35Ala (Bacillus subtilis, UniProt P0CI74, D35A); experiment: Fluorescence polarisation binding to BsGpsB1-68Asp35Ala; details: FP, BsGpsB1-68Asp35Ala relative to wild-type BsGpsB1-68
T4 construct: Glu17Ala, Asp31Ala and Asp35Ala mutations were introduced to the BsGpsB1-68 expression construct plasmid; His6 (N, cleaved yes); made in house; host or cells: E. coli BL21(DE3)
Source text: as §1

BsGpsB1-68Asp31Ala = target: T5, BsGpsB1-68Asp31Ala (Bacillus subtilis, UniProt P0CI74, D31A); experiment: Fluorescence polarisation binding to BsGpsB1-68Asp31Ala; details: FP, BsGpsB Asp31Ala relative to wild-type BsGpsB1-68
T5 construct: Glu17Ala, Asp31Ala and Asp35Ala mutations were introduced to the BsGpsB1-68 expression construct plasmid; His6 (N, cleaved yes); made in house; host or cells: E. coli BL21(DE3)
Source text: as §1

[3] = Circular dichroism of PBP peptides (helicity); format: physicochemical; details: CD, 222 nm, 4 °C, 20 mM sodium phosphate pH 7.3, 25 μM peptide
Description: CD spectra were recorded on a JASCO J-810 spectropolarimeter with a PTC-4235 Peltier temperature controller using 1 mm path length quartz cuvettes. For full wavelength scans a scan speed of 10 nm^−1min^−1 and a response time of 4 s were used, the final spectra were the average of at least four measurements. BsPBP1_1-32 CD spectra were recorded at 4 °C in a buffer of 20 mM sodium phosphate, pH 7.3 at a peptide concentration of 25 μM. Peptide helical contents were estimated from molar ellipticities at 222 nm using the equation helix = [θ]222 nm / (39,500(1–2.57/n))[78] where n is the number of residues in the peptide. LmPBPA1_1-15 CD spectra were analysed at 40 μM in 20 mM sodium phosphate buffer, pH 7.8, for samples containing 0, 40 and 60% trifluoroethanol (TFE). For samples containing 80% TFE, 5 mM sodium phosphate buffer, pH 7.8, was used. The CD spectra of BsGpsB1-68 proteins were measured at a concentration of 4.5 μM in a buffer of 20 mM sodium phosphate (pH 7.8) 150 mM NaCl. For thermal melt experiments, a response time of 8 s and scan rate of 1 °C^−1min^−1 were used. All thermal melts were reversible as CD spectra recorded before and after the melts in the wavelength range 200–240 nm could be superimposed.

BsGpsB1-68Tyr25Phe = target: T6, BsGpsB1-68Tyr25Phe (Bacillus subtilis, UniProt P0CI74, Y25F); experiment: Fluorescence polarisation binding to BsGpsB1-68Tyr25Phe; details: FP, BsGpsB Tyr25Phe relative to wild-type BsGpsB1-68
T6 construct: correspond to BsGpsB1-68^Asp31Ala and BsGpsB1-68^Tyr25Phe mutants, respectively; His6 (N, cleaved yes); made in house; host or cells: E. coli BL21(DE3)
Source text: as §1

full-length BsPBP1 = experiment: SPR binding to immobilised full-length BsPBP1; design: species or system Bacillus subtilis
Source text: (§2) BsPBP1 and BsPBP1_17-914 were immobilised on the surface of a CM5 chip (GE Healthcare). For the BsPBP1/YrrSΔ13-16 titration 800 RUs of BsPBP1 were immobilised on the chip surface; for the BsPBP1/BsGpsB titration 1200 RUs of BsPBP1 were immobilised. YrrSΔ13-16, which lacks residues 13–16 in the cytoplasmic domain, was used in these experiments to minimise non-specific interactions with the chip matrix; binding of YrrSΔ13-16 to the reference surface was negligible and the deletion of residues 13–16 leaves the GpsB-binding motif intact. The YrrSΔ13-16 titration was carried out in single-cycle mode, without regenerating the surface between successive injections of protein, because harsh reagents were necessary for full surface regeneration.

[4] = target: T7, full-length BsPBP1 (Bacillus subtilis PBP1) (B. subtilis, UniProt P39793 1-914); experiment: SPR; BsPBP1 or BsPBP1_(17-914) immobilised on a CM5 chip (1200 RUs of BsPBP1); BsGpsB injected; 10 mM Tris.HCl pH 8.0, 250 mM NaCl, 0.1% reduced Triton X-100; details: both partners purified
T7 construct: also called wild-type BsPBP1; source: E. coli, purified from membrane pellets (His select resin, thrombin, Superdex S200)
T7 sequence (looked up): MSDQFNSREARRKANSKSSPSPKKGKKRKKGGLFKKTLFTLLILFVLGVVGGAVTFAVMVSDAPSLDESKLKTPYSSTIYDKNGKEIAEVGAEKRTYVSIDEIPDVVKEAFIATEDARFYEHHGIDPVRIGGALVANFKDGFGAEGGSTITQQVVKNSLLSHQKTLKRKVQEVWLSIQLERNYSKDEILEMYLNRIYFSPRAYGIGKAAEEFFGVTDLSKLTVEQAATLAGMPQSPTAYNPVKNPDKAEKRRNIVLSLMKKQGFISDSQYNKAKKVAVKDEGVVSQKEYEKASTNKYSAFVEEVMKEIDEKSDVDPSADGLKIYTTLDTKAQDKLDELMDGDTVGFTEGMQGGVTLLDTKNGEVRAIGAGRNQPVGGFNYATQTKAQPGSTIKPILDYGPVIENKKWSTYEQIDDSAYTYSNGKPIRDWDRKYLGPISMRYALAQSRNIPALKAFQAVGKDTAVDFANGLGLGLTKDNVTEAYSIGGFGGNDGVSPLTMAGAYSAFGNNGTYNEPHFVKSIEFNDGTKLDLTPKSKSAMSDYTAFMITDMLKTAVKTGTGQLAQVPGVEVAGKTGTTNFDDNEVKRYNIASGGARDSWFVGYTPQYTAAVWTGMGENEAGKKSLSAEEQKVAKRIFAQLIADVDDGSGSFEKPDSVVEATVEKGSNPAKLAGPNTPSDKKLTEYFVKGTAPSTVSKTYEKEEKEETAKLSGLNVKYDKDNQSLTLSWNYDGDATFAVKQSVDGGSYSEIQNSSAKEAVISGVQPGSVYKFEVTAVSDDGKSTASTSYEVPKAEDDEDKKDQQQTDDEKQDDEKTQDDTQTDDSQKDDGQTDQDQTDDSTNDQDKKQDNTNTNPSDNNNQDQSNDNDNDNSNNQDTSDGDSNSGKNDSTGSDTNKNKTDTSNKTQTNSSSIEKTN

BsPBP1_17-914 = experiment: SPR binding to immobilised BsPBP1_17-914; design: species or system Bacillus subtilis; details: chip coated with BsPBP1_17-914, even when 25 µM BsGpsB injected
Source text: as §2

Q: Which “binding to BsGpsB1-68Lys32Glu (in words)” value (BsGpsB1-68Lys32Glu) does the source give for `CSCC[C@H](NC(=O)[C@H](CO)NC(=O)CN)C(=O)N[C@@H](C)C(=O)N[C@@H](CC(=O)O)C(=O)N[C@@H](CCCCN)C(=O)N1CCC[C@H]1C(=O)N[C@@H](CCC(N)=O)C(=O)N[C@H](C(=O)N[C@@H](CCCNC(=N)N)C(=O)N[C@@H](CO)C(=O)N[C@@H](CCC(N)=O)C(=O)N[C@@H](Cc1ccc(O)cc1)C(=O)N[C@@H](CCCNC(=N)N)C(=O)N[C@@H](CC(N)=O)C(=O)N[C@@H](CCCCN)C(=O)N[C@@H](CCC(N)=O)C(=O)N[C@@H](CO)C(=O)NCC(=O)NCC(=O)N[C@@H](CSC1CC(=O)N(c2ccc3c(c2)C(=O)OC32c3ccc(O)cc3Oc3cc(O)ccc32)C1=O)C(=O)N[C@@H](CCCCN)C(=O)O)[C@@H](C)O` (some centres unmarked) [Fluorescein-LmPBPA11-20] (H-GSMADKPQTRSQYRNKQSGGC(Fluorescein(5-Mal))K-OH; N-terminus and C-terminus assumed) here?
A: The value was “almost identical”.

Q: And the “binding to LmGpsB1-73 (in words)” value (LmGpsB1-73)?
A: Its value is “affinity similar to that of BsPBPA1_1-32 for BsGpsB1-68”.

Q: For `C[C@@H]1O[C@@H]1P(=O)(O)O` [fosfomycin], which fosfomycin sensitivity (L. monocytogenes [1]) is on record?
A: The fosfomycin sensitivity was “Effects on fosfomycin sensitivity were apparent in mutants carrying the pbpA1^Arg8Ala,Arg12Ala and pbpA1^Gln10Pro alleles but only when LmPBPA2, the LmPBPA1 paralogue, was also absent”.

Q: What about the “fosfomycin susceptibility of ΔgpsB mutants” value (L. monocytogenes [2]) of the same molecule?
A: Its value is “more susceptible”.

Q: Which results are given for `CSCC[C@H](NC(=O)[C@H](CO)NC(=O)CN)C(=O)N[C@@H](C)C(=O)N[C@@H](CC(=O)O)C(=O)N[C@@H](CCC(N)=O)C(=O)N[C@@H](Cc1ccccc1)C(=O)N[C@@H](CC(N)=O)C(=O)N[C@@H](CO)C(=O)N[C@@H](CCCNC(=N)N)C(=O)N[C@@H](CCC(=O)O)C(=O)N[C@@H](C)C(=O)N[C@@H](CCCNC(=N)N)C(=O)N[C@@H](CCCNC(=N)N)C(=O)N[C@@H](CCCCN)C(=O)N[C@@H](C)C(=O)N[C@@H](CC(N)=O)C(=O)N[C@@H](CSC1CC(=O)N(c2ccc(-c3c4ccc(=[N+](C)C)cc-4oc4cc(N(C)C)ccc34)c(C(=O)[O-])c2)C1=O)C(=O)N[C@@H](CCCCN)C(=O)N[C@@H](CO)C(=O)N[C@@H](CO)C(=O)N1CCC[C@H]1C(=O)N[C@@H](CO)C(=O)N1CCC[C@H]1C(=O)N[C@@H](CCCCN)C(=O)N[C@@H](CCCCN)C(=O)NCC(=O)N[C@@H](CCCCN)C(=O)N[C@@H](CCCCN)C(=O)N[C@@H](CCCNC(=N)N)C(=O)N[C@@H](CCCCN)C(=O)N[C@@H](CCCCN)C(=O)NCC(=O)NCC(=O)O` (some centres unmarked) [TAMRA-BsPBP11-32] (H-GSMADQFNSREARRKANC(X1)KSSPSPKKGKKRKKGG-OH)?
A: reduction in affinity on GpsB mutation (BsGpsB1-68Glu17Ala): more than 8 fold; reduction in affinity on GpsB mutation (BsGpsB1-68Asp35Ala): more than 8 fold; reduction in affinity on GpsB mutation (BsGpsB1-68Asp31Ala): more than 8 fold; helical residues corresponding to helical content [3]: ~ 5 residues; α-helical content ([3]; average of at least four measurements): 14%; reduction in affinity on GpsB mutation (BsGpsB1-68Tyr25Phe): more than 8 fold

B1: full-length BsGpsB (Bacillus subtilis GpsB) (natural protein, B. subtilis, UniProt P0CI74 1-98, looked up)
chain: MLADKVKLSAKEILEKEFKTGVRGYKQEDVDKFLDMIIKDYETFHQEIEELQQENLQLKKQLEEASKKQPVQSNTTNFDILKRLSNLEKHVFGSKLYD
notes: GpsB, Bacillus subtilis; purification of the full-length protein is not described here; source: E. coli BL21(DE3) used for recombinant protein production)
Q: For B1, which Kd (full-length BsPBP1; SPR, PBP1-coated chip, full-length GpsB data fit 1:1 only over limited concentration range (avidity), BsGpsB1-68 supports 1:1, peer review file, read-out: affinity / Kd by SPR) is on record?
A: Its Kd is 700 nM.

Q: And the “SPR binding (in words)” value (full-length BsPBP1; chip coated with wild-type BsPBP1 (1200 RU), submicromolar BsGpsB)?
A: The value was “submicromolar concentrations of BsGpsB bound to chips coated with the wild-type BsPBP1”.

Q: Does B1 bind [4]?
A: Result: binds

Q: What about the “SPR binding (in words)” value (BsPBP1_17-914) of the same molecule?
A: Its value is “does not interact; also recorded: no interaction”.
